Laboratory results from ChEMBL document CHEMBL4507263, “Data for DCP probe BAY-474” (2021).

Experiments:
[1] = molecular target: Platelet-derived growth factor receptor alpha (Homo sapiens) (UniProt P16234); settings: Compound concentration 1000.0 nM
[2] = molecular target: Calcium/calmodulin-dependent protein kinase type 1D (Homo sapiens) (UniProt Q8IU85); settings: Compound concentration 1000.0 nM
[3] = molecular target: Cyclin-dependent kinase-like 2 (Homo sapiens) (UniProt Q92772); settings: Compound concentration 1000.0 nM
[4] = molecular target: Serine/threonine-protein kinase PLK3 (Homo sapiens) (UniProt Q9H4B4); settings: Compound concentration 1000.0 nM
[5] = molecular target: Myosin-IIIb (Homo sapiens) (UniProt Q8WXR4); settings: Compound concentration 1000.0 nM
[6] = molecular target: Phosphatidylinositol 5-phosphate 4-kinase type-2 beta (Homo sapiens) (UniProt P78356); settings: Compound concentration 1000.0 nM
[7] = molecular target: Insulin-like growth factor 1 receptor (Homo sapiens) (UniProt P08069); settings: Compound concentration 1000.0 nM
[8] = molecular target: Tyrosine-protein kinase Yes (Homo sapiens) (UniProt P07947); settings: Compound concentration 1000.0 nM
[9] = molecular target: Membrane-associated tyrosine- and threonine-specific cdc2-inhibitory kinase (Homo sapiens) (UniProt Q99640); settings: Compound concentration 1000.0 nM
[10] = system: Epidermal growth factor receptor (Homo sapiens), P00533 [T790M]; settings: Compound concentration 1000.0 nM
[11] = molecular target: Mitogen-activated protein kinase kinase kinase 19 (Homo sapiens) (UniProt Q56UN5); settings: Compound concentration 1000.0 nM
[12] = system: Tyrosine-protein kinase ABL1 (Homo sapiens), P00519 [E255K]; settings: Compound concentration 1000.0 nM
[13] = molecular target: Serine/threonine-protein kinase ULK1 (Homo sapiens) (UniProt O75385); settings: Compound concentration 1000.0 nM
[14] = molecular target: Mast/stem cell growth factor receptor Kit (Homo sapiens) (UniProt P10721); settings: Compound concentration 1000.0 nM
[15] = system: Receptor-type tyrosine-protein kinase FLT3 (Homo sapiens), P36888 [UNDEFINED MUTATION]; settings: Compound concentration 1000.0 nM
[16] = molecular target: Serine/threonine-protein kinase 16 (Homo sapiens) (UniProt O75716); settings: Compound concentration 1000.0 nM
[17] = molecular target: Serine/threonine-protein kinase Chk2 (Homo sapiens) (UniProt O96017); settings: Compound concentration 1000.0 nM
[18] = molecular target: Homeodomain-interacting protein kinase 1 (Homo sapiens) (UniProt Q86Z02); settings: Compound concentration 1000.0 nM
[19] = molecular target: Cyclin-dependent kinase 15 (Homo sapiens) (UniProt Q96Q40); settings: Compound concentration 1000.0 nM
[20] = system: Phosphatidylinositol 4,5-bisphosphate 3-kinase catalytic subunit alpha isoform (Homo sapiens), P42336 [H1047L]; settings: Compound concentration 1000.0 nM
[21] = system: Tyrosine-protein kinase ABL1 (Homo sapiens), P00519 [Q252H]; settings: Compound concentration 1000.0 nM
[22] = molecular target: Homeodomain-interacting protein kinase 2 (Homo sapiens) (UniProt Q9H2X6); settings: Compound concentration 1000.0 nM
[23] = molecular target: Serine/threonine-protein kinase DCLK2 (Homo sapiens) (UniProt Q8N568); settings: Compound concentration 1000.0 nM
[24] = molecular target: Cytoplasmic tyrosine-protein kinase BMX (Homo sapiens) (UniProt P51813); settings: Compound concentration 1000.0 nM
[25] = molecular target: Hepatocyte growth factor receptor (Homo sapiens, UniProt P08581); assay: Met (h) Millipore kinase activity assay; settings: Compound concentration 1.0 uM
[26] = molecular target: Serine/threonine-protein kinase PAK 5 (Homo sapiens) (UniProt Q9P286); assay: PAK5 (h) Millipore kinase activity assay; settings: Compound concentration 1.0 uM
[27] = molecular target: L-type calcium channel, benzothiazepine site (Cav1.2 alpha-1C) (Homo sapiens, UniProt Q13936); assay: Inhibition of Calcium Channel L-Type, Benzothiazepine at 10 µM in the Eurofins-Panlabs radioligand binding assay (Eurofins_assay_214510); design: ligand concentration 2 nM, non-specific ligand with concentration 10 µM Diltiazem, incubation time 3h, incubation temperature 4 °C; settings: male, Wistar, rat, rat whole brain preparation, probe [3H] Diltiazem; compound concentration 10 uM; target entry is the homologue from another species
[28] = molecular target: Serine/threonine-protein kinase MRCK alpha (Homo sapiens) (UniProt Q5VT25); assay: MRCKalpha (h) Millipore kinase activity assay; settings: Compound concentration 1.0 uM
[29] = molecular target: Serine/threonine-protein kinase N2 (Homo sapiens) (UniProt Q16513); assay: PRK2 (h) Millipore kinase activity assay; settings: Compound concentration 1.0 uM
[30] = molecular target: GABA-A receptor; anion channel (Rattus norvegicus) (UniProt O09028+P15431+P18506+P18508+P19969+P20236+P23574+P23576+P28471+P28473+P30191+P62813+P63079+P63138+Q91ZM7+Q9ES14); settings: Compound concentration 10.0 uM
[31] = molecular target: Cannabinoid receptor 1 (Homo sapiens) (UniProt P21554); settings: Compound concentration 10.0 uM
[32] = molecular target: Kappa-type opioid receptor (Homo sapiens) (UniProt P41145); settings: Compound concentration 10.0 uM
[33] = molecular target: D(3) dopamine receptor (Homo sapiens) (UniProt P35462); settings: Compound concentration 10.0 uM
[34] = molecular target: Calcium/calmodulin-dependent protein kinase type IV (Homo sapiens) (UniProt Q16566); assay: CaMKIV (h) Millipore kinase activity assay; settings: Compound concentration 1.0 uM
[35] = molecular target: Homeodomain-interacting protein kinase 1 (Homo sapiens) (UniProt Q86Z02); assay: HIPK1 (h) Millipore kinase activity assay; settings: Compound concentration 1.0 uM
[36] = molecular target: Protein-tyrosine kinase 6 (Homo sapiens) (UniProt Q13882); assay: BRK (h) Millipore kinase activity assay; settings: Compound concentration 1.0 uM
[37] = molecular target: Tyrosine-protein kinase ZAP-70 (Homo sapiens) (UniProt P43403); assay: ZAP-70 (h) Millipore kinase activity assay; settings: Compound concentration 1.0 uM
[38] = molecular target: Serine/threonine-protein kinase DCLK2 (Homo sapiens) (UniProt Q8N568); assay: DCAMKL2 (h) Millipore kinase activity assay; settings: Compound concentration 1.0 uM
[39] = molecular target: Substance-P receptor (Homo sapiens) (UniProt P25103); assay: Inhibition of Tachykinin NK1 at 10 µM in the Eurofins-Panlabs radioligand binding assay (Eurofins_assay_255520); design: ligand concentration 0.8 nM; settings: Compound concentration 10.0 uM
[40] = molecular target: voltage-gated sodium channel, site 2 (Rattus norvegicus, UniProt F1LQQ7+O08562+O88420+O88457+P04774+P04775+P08104+P15389+P15390+Q62968); assay: Inhibition of Sodium Channel, Site 2 at 10 µM in the Eurofins-Panlabs radioligand binding assay (Eurofins_assay_279510); format: protein assay; design: ligand concentration 5 nM, non-specific ligand with concentration 100 µM Veratridine, incubation time 60 min, incubation temperature 37 °C; settings: male, Wistar, rat whole brain (except cerebellum) membranes, probe [3H] Batrachotoxinin, compound concentration 10 uM

Homeodomain-interacting protein kinase 1 (Homo sapiens), sequence (Q86Z02 whole entry, looked up): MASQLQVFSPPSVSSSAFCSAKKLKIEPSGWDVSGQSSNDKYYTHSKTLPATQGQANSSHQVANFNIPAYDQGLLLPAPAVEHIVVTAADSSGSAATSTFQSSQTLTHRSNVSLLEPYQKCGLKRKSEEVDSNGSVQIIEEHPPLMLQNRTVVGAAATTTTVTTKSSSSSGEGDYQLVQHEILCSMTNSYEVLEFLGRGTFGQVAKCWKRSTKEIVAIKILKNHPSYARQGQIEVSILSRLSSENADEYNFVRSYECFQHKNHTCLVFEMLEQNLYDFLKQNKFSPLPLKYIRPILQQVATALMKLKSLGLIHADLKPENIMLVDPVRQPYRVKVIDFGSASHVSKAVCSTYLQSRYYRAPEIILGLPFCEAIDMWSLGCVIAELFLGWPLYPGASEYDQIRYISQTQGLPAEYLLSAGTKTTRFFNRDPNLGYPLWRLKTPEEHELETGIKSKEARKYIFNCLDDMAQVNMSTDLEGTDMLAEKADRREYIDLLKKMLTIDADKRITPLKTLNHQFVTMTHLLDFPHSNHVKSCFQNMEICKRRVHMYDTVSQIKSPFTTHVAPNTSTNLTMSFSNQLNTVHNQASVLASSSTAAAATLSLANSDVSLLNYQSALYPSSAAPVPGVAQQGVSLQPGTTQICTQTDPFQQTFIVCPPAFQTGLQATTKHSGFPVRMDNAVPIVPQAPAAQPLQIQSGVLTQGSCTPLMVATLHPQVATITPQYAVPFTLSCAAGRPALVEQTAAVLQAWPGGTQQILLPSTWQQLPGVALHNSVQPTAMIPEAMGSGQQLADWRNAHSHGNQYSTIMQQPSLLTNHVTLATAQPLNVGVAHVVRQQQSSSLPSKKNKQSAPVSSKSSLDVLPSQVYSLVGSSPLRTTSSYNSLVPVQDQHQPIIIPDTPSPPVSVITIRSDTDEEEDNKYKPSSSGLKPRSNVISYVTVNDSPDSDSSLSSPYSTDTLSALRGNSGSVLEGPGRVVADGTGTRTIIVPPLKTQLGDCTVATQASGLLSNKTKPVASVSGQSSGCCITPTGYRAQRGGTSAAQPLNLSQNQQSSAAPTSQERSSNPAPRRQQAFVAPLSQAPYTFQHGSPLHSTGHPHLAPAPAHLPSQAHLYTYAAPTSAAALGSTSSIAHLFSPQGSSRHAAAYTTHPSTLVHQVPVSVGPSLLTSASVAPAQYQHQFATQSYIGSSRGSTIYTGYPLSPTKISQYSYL
Serine/threonine-protein kinase DCLK2 (Homo sapiens), sequence (Q8N568 whole entry): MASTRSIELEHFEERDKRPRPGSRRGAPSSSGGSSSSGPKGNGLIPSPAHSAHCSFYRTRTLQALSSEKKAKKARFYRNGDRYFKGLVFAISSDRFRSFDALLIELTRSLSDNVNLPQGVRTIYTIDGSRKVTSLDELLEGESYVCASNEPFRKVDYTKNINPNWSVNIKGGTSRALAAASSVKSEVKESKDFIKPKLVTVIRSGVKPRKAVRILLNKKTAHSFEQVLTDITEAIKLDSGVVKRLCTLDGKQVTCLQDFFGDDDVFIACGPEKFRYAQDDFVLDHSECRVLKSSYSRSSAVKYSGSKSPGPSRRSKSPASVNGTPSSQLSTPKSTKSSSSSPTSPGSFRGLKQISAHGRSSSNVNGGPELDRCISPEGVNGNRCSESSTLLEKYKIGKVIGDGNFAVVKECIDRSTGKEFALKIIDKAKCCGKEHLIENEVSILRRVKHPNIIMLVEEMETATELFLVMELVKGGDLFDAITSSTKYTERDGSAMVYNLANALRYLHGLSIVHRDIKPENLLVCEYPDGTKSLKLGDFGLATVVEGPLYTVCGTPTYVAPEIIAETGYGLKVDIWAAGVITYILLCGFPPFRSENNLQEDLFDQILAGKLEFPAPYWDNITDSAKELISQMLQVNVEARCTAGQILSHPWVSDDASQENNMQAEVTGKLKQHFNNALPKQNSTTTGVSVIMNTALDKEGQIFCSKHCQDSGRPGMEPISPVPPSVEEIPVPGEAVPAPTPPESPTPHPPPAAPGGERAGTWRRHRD
Protein-tyrosine kinase 6 (Homo sapiens), sequence (Q13882 whole entry, looked up): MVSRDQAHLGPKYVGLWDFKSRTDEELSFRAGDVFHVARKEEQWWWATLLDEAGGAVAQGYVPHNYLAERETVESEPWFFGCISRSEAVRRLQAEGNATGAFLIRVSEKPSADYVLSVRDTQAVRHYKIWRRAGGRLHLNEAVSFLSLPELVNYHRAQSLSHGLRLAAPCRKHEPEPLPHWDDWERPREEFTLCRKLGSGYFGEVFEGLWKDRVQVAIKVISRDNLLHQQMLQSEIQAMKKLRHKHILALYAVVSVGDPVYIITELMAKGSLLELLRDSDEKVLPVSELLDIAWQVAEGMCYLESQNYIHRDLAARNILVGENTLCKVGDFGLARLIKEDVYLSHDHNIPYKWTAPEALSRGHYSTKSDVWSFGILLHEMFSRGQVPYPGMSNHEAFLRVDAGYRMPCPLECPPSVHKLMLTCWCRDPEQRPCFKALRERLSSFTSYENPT
Receptor-type tyrosine-protein kinase FLT3 (Homo sapiens), P36888 [UNDEFINED MUTATION], sequence (P36888 whole entry, looked up, change not shown): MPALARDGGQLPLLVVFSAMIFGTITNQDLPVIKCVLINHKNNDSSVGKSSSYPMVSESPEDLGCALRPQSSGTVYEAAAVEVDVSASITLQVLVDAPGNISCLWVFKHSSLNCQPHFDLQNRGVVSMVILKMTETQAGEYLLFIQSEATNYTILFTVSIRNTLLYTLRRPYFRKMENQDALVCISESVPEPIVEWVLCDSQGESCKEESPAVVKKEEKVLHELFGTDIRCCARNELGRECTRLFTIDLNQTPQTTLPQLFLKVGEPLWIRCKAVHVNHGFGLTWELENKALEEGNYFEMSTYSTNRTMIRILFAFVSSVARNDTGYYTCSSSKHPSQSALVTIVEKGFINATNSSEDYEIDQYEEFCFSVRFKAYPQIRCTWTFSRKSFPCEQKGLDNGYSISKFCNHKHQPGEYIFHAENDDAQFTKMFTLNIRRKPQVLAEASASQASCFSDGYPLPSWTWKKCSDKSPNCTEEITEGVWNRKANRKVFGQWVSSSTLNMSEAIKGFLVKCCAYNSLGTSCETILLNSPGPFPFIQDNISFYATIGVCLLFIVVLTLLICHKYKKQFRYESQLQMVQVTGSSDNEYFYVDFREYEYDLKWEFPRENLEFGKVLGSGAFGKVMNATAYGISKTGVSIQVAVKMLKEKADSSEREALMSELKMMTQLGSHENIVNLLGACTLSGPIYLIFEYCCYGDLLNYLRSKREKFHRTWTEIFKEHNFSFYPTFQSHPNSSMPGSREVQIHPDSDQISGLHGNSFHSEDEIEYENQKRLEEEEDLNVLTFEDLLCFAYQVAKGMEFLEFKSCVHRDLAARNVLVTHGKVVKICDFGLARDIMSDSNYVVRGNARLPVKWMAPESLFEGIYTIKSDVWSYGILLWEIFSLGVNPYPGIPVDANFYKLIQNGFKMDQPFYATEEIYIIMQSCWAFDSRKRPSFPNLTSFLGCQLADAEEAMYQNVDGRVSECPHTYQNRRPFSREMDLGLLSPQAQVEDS
Serine/threonine-protein kinase N2 (Homo sapiens), sequence (Q16513 whole entry, looked up): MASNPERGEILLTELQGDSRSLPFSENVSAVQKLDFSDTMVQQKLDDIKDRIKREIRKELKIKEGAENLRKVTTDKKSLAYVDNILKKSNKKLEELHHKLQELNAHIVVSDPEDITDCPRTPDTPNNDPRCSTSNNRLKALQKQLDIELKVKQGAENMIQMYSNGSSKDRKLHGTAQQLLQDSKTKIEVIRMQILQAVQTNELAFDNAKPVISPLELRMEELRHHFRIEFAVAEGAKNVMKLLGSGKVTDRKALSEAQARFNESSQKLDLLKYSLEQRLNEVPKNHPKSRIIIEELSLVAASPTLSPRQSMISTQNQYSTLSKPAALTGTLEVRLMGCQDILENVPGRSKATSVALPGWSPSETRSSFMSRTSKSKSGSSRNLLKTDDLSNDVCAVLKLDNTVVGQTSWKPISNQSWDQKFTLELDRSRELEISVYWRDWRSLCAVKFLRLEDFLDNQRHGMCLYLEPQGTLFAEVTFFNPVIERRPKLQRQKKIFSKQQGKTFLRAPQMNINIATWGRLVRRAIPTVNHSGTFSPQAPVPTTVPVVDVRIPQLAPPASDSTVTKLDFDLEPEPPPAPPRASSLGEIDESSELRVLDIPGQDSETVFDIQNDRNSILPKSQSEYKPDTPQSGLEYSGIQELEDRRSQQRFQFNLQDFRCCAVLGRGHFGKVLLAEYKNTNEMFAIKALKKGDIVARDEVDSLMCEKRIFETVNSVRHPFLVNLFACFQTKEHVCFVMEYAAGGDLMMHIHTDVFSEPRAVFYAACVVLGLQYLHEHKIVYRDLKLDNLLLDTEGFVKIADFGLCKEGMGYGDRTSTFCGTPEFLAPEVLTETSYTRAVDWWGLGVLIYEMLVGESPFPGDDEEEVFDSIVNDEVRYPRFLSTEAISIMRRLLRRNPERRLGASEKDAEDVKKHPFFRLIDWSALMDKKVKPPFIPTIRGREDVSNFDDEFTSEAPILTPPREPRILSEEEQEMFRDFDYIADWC
Cyclin-dependent kinase-like 2 (Homo sapiens), sequence (Q92772 whole entry): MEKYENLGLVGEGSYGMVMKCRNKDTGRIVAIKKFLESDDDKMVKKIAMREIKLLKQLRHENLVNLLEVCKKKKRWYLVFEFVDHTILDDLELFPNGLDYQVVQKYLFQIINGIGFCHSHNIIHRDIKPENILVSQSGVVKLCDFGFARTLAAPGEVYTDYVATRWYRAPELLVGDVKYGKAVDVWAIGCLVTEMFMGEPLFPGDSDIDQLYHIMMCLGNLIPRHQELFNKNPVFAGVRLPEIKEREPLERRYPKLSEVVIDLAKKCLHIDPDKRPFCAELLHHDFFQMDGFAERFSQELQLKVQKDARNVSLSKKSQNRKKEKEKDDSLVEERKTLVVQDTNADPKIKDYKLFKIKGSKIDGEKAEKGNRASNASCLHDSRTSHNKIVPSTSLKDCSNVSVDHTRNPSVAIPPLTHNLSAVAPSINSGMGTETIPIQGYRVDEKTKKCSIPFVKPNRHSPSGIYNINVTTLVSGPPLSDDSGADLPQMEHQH

CC1=C(C#N)[C@@H](c2ccc3[nH]nc(C)c3c2)C(C#N)=C(c2ccc(Cl)cc2)N1 [BAY-827]
inactive: residual activity [1] 100% | residual activity [2] 100% | residual activity [3] 97.9% | residual activity [4] 77.5% | residual activity [5] 78% | residual activity [6] 69.3% | residual activity [7] 100% | residual activity [8] 100% | residual activity [9] 100% | residual activity [10] 100% | residual activity [11] 100% | residual activity [12] 83.5% | residual activity [13] 100% | residual activity [14] 95.4% | residual activity [15] 100% | residual activity [16] 100% | residual activity [17] 100% | residual activity [18] 56.7% | residual activity [19] 75.4% | residual activity [20] 100% | residual activity [21] 100% | residual activity [22] 86.1% | residual activity [23] 97.9% | residual activity [24] 100%

CC1=C(C#N)C(c2ccc3[nH]nc(C)c3c2)C(C#N)=C(C)N1 [BAY-474]
inactive: inhibition [25] 82% | inhibition [26] -4% | inhibition [28] -10% | inhibition [29] 9% | inhibition [30] -2% | inhibition [31] 17% | inhibition [32] 7% | inhibition [33] 12% | inhibition [34] -1% | inhibition [35] -5% | inhibition [36] -7% | inhibition [37] 12% | inhibition [38] -5% | inhibition [39] -4%
-9% (not active): inhibition at 3 h, 10 µM [27]
-1% (not active): inhibition at 60 min, 10 µM [40]
